Source: the NIST ThermoML archive (doi:10.1016/j.tca.2007.05.014)

Assays:
[1] = Crystal; Adiabatic calorimetry
[2] = Molar enthalpy of transition or fusion; details: Crystal; Adiabatic calorimetry
[3] = molar heat capacity at constant pressure; details: 101.33 kPa, Vacuum adiabatic calorimetry

c1ccc(CSSCc2ccccc2)cc1 [1,4-diphenyl-2,3-dithiabutane]
Details	Molar enthalpy of transition or fusion [kJ/mol]	Triple point temperature [K]
[1]	–	341.72
[2]	44.97	–

[3]
Details	molar heat capacity at constant pressure [J/K/mol]
80 K, Crystal	108.82
80.3 K, Crystal	108.33
84.06 K, Crystal	111.79
85 K, Crystal	111.44
87.01 K, Crystal	113.48
90 K, Crystal	116.01
90.01 K, Crystal	116.34
92.93 K, Crystal	118.76
95 K, Crystal	122.1
95.91 K, Crystal	122.02
99.41 K, Crystal	127.8
100 K, Crystal	129.33
103.24 K, Crystal	135.01
105 K, Crystal	137.39
106.95 K, Crystal	141.28
110 K, Crystal	145.99
110.69 K, Crystal	147.39
114.47 K, Crystal	153.91
115 K, Crystal	154.9
118.16 K, Crystal	160.1
120 K, Crystal	163.94
121.87 K, Crystal	169.57
125 K, Crystal	172.98
125.68 K, Crystal	176.87
129.35 K, Crystal	179.77
130 K, Crystal	181.89
132.96 K, Crystal	185.92
135 K, Crystal	190.59
136.61 K, Crystal	192.1
140 K, Crystal	199.02
140.35 K, Crystal	197.02
144.38 K, Crystal	205.28
145 K, Crystal	207.16
147.99 K, Crystal	211.7
150 K, Crystal	214.97
151.7 K, Crystal	217.62
155 K, Crystal	222.48
155.35 K, Crystal	222.51
158.92 K, Crystal	228.58
160 K, Crystal	229.68
162.44 K, Crystal	233.74
165 K, Crystal	236.6
165.91 K, Crystal	238.97
169.42 K, Crystal	243.63
170 K, Crystal	243.29
172.99 K, Crystal	248.31
175 K, Crystal	249.78
176.5 K, Crystal	252.64
179.96 K, Crystal	257.05
180 K, Crystal	256.1
183.38 K, Crystal	260.66
185 K, Crystal	262.31
186.84 K, Crystal	265.34
190 K, Crystal	268.46
190.36 K, Crystal	269.4
193.83 K, Crystal	273.35
195 K, Crystal	274.58
197.26 K, Crystal	277.29
200 K, Crystal	280.71
200.65 K, Crystal	280.28
204 K, Crystal	284.27
205 K, Crystal	286.91
207.4 K, Crystal	288.01
210 K, Crystal	293.18
210.85 K, Crystal	291.95
214.25 K, Crystal	296.05
215 K, Crystal	299.57
217.6 K, Crystal	300.68
220 K, Crystal	306.1
220.9 K, Crystal	305.02
224.17 K, Crystal	310.55
225 K, Crystal	312.77
227.41 K, Crystal	316.71
230 K, Crystal	319.61
230.64 K, Crystal	324.45
234.1 K, Crystal	331.98
235 K, Crystal	326.59
237.58 K, Crystal	333.36
240 K, Crystal	333.73
240.9 K, Crystal	338.86
244.3 K, Crystal	341.63
245 K, Crystal	341.01
247.7 K, Crystal	342.44
250 K, Crystal	348.41
251 K, Crystal	347.57
254.37 K, Crystal	353.48
255 K, Crystal	355.91
257.79 K, Crystal	359.5
260 K, Crystal	363.48
261.22 K, Crystal	363.54
264.69 K, Crystal	369.67
265 K, Crystal	371.1
268.17 K, Crystal	374.81
270 K, Crystal	378.73
271.64 K, Crystal	381.1
275 K, Crystal	386.35
275.11 K, Crystal	386.26
278.65 K, Crystal	391.99
280 K, Crystal	393.93
282.26 K, Crystal	396.6
285 K, Crystal	401.44
285.84 K, Crystal	402.1
289.39 K, Crystal	410.38
290 K, Crystal	408.86
292.9 K, Crystal	417.2
295 K, Crystal	416.2
296.45 K, Crystal	417.2
298.15 K, Crystal	420.77
299.98 K, Crystal	422.24
300 K, Crystal	423.44
303 K, Crystal	427.75
303.49 K, Crystal	427.76
307 K, Crystal	437.99
310.49 K, Crystal	432.45
313.97 K, Crystal	443.61
317.47 K, Crystal	440.2
320.92 K, Crystal	443.39
324.15 K, Crystal	448.33
327.24 K, Crystal	479.87
330.68 K, Crystal	494.5
334.08 K, Crystal	565.94
337.09 K, Crystal	842.59
339.29 K, Crystal	2123.3
340.75 K, Crystal	6689.9
344.92 K, Liquid	1138.3
350.93 K, Liquid	545.43
355 K, Liquid	545.41
355.68 K, Liquid	550.14
359.31 K, Liquid	554.64
360 K, Liquid	555.11
362.99 K, Liquid	559.12
365 K, Liquid	561.67
366.65 K, Liquid	562.71
370 K, Liquid	564.76
370.29 K, Liquid	565.83
373.91 K, Liquid	569.68
375 K, Liquid	580.96
377.39 K, Liquid	643.17
